Assay results as given in PubChem BioAssay (NCI).
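Tested at 5 concentrations; 48 h exposure; 96-well plates; endpoints linearly interpolated, else capped at highest concentration. GI50 = concentration required for 50% inhibition of growth. TGI marks complete inhibition of growth.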

Assays:
Assay in all cases: growth of human tumour cells (NCI), 48 h
TK-10 renal = test system: TK-10 renal
RXF 393 renal = test system: RXF 393 renal
SF-539 CNS = test system: SF-539 CNS
BT-549 breast = test system: BT-549 breast
HL-60(TB) leukemia = test system: HL-60(TB) leukemia
IGROV1 ovarian = test system: IGROV1 ovarian
HS 578T breast = test system: HS 578T breast
SN12C renal = test system: SN12C renal
OVCAR-5 ovarian = test system: OVCAR-5 ovarian
A549 NSCLC = test system: A549 NSCLC
HCT-15 colon = test system: HCT-15 colon
NCI-H226 lung = test system: NCI-H226 lung
UO-31 renal = test system: UO-31 renal
SK-MEL-2 melanoma = test system: SK-MEL-2 melanoma
DU-145 prostate = test system: DU-145 prostate
HOP-92 NSCLC = test system: HOP-92 NSCLC
CAKI-1 renal = test system: CAKI-1 renal
SF-295 CNS = test system: SF-295 CNS
RPMI-8226 leukemia = test system: RPMI-8226 leukemia
786-0 renal = test system: 786-0 renal
MDA-MB-231 breast = test system: MDA-MB-231 breast
HCT-116 colon = test system: HCT-116 colon
MOLT-4 leukemia = test system: MOLT-4 leukemia
KM12 colon = test system: KM12 colon
K-562 leukemia = test system: K-562 leukemia
NCI-H23 lung = test system: NCI-H23 lung
SR leukemia = test system: SR leukemia
HCC-2998 colon = test system: HCC-2998 colon
PC-3 prostate = test system: PC-3 prostate
NCI/ADR-RES ovarian = test system: NCI/ADR-RES ovarian
ACHN renal = test system: ACHN renal
M14 melanoma = test system: M14 melanoma
SF-268 CNS = test system: SF-268 CNS
NCI-H460 lung = test system: NCI-H460 lung
UACC-62 melanoma = test system: UACC-62 melanoma
NCI-H522 lung = test system: NCI-H522 lung
OVCAR-3 ovarian = test system: OVCAR-3 ovarian
SW-620 colon = test system: SW-620 colon
A498 renal = test system: A498 renal
MDA-MB-435 = test system: MDA-MB-435
UACC-257 melanoma = test system: UACC-257 melanoma
SK-MEL-5 melanoma = test system: SK-MEL-5 melanoma
CCRF-CEM leukemia = test system: CCRF-CEM leukemia
MCF7 breast = test system: MCF7 breast
OVCAR-8 ovarian = test system: OVCAR-8 ovarian
EKVX NSCLC = test system: EKVX NSCLC
SK-MEL-28 melanoma = test system: SK-MEL-28 melanoma
LOX IMVI melanoma = test system: LOX IMVI melanoma
SK-OV-3 ovarian = test system: SK-OV-3 ovarian
SNB-75 CNS = test system: SNB-75 CNS
HT29 colon = test system: HT29 colon
OVCAR-4 ovarian = test system: OVCAR-4 ovarian
T-47D breast = test system: T-47D breast

Compound: OCC#CCOCC#Cc1ccccc1C#CCOCC#CCO
- GI50 (TK-10 renal): 24.4 µM
- TGI (TK-10 renal): 68.8 µM
- GI50 (RXF 393 renal): 28.8 µM
- TGI (RXF 393 renal): 82.4 µM
- GI50 (SF-539 CNS): 47.4 µM
- TGI (SF-539 CNS): > 100 µM
- GI50 (BT-549 breast): 34.2 µM
- TGI (BT-549 breast): 93.2 µM
- GI50 (HL-60(TB) leukemia): 47.4 µM
- TGI (HL-60(TB) leukemia): > 100 µM
- GI50 (IGROV1 ovarian): > 100 µM
- TGI (IGROV1 ovarian): > 100 µM
- GI50 (HS 578T breast): > 100 µM
- TGI (HS 578T breast): > 100 µM
- GI50 (SN12C renal): 26.7 µM
- TGI (SN12C renal): 80.9 µM
- GI50 (OVCAR-5 ovarian): > 100 µM
- TGI (OVCAR-5 ovarian): > 100 µM
- GI50 (A549 NSCLC): 50.9 µM
- TGI (A549 NSCLC): > 100 µM
- GI50 (HCT-15 colon): 20.9 µM
- TGI (HCT-15 colon): > 100 µM
- GI50 (NCI-H226 lung): 41.4 µM
- TGI (NCI-H226 lung): > 100 µM
- GI50 (UO-31 renal): > 100 µM
- TGI (UO-31 renal): > 100 µM
- GI50 (SK-MEL-2 melanoma): > 100 µM
- TGI (SK-MEL-2 melanoma): > 100 µM
- GI50 (DU-145 prostate): 48.4 µM
- TGI (DU-145 prostate): > 100 µM
- GI50 (HOP-92 NSCLC): 21.8 µM
- TGI (HOP-92 NSCLC): > 100 µM
- GI50 (CAKI-1 renal): 82.8 µM
- TGI (CAKI-1 renal): > 100 µM
- GI50 (SF-295 CNS): > 100 µM
- TGI (SF-295 CNS): > 100 µM
- GI50 (RPMI-8226 leukemia): 13.7 µM
- TGI (RPMI-8226 leukemia): 35.3 µM
- GI50 (786-0 renal): 34 µM
- TGI (786-0 renal): > 100 µM
- GI50 (MDA-MB-231 breast): 30.2 µM
- TGI (MDA-MB-231 breast): 83.4 µM
- GI50 (HCT-116 colon): 16.6 µM
- TGI (HCT-116 colon): 44 µM
- GI50 (MOLT-4 leukemia): 44.8 µM
- TGI (MOLT-4 leukemia): > 100 µM
- GI50 (KM12 colon): 35.1 µM
- TGI (KM12 colon): > 100 µM
- GI50 (K-562 leukemia): 27 µM
- TGI (K-562 leukemia): 90 µM
- GI50 (NCI-H23 lung): 36 µM
- TGI (NCI-H23 lung): > 100 µM
- GI50 (SR leukemia): 18.5 µM
- TGI (SR leukemia): > 100 µM
- GI50 (HCC-2998 colon): 29 µM
- TGI (HCC-2998 colon): 75.3 µM
- GI50 (PC-3 prostate): 22.5 µM
- TGI (PC-3 prostate): > 100 µM
- GI50 (NCI/ADR-RES ovarian): 46.6 µM
- TGI (NCI/ADR-RES ovarian): > 100 µM
- GI50 (ACHN renal): 27.8 µM
- TGI (ACHN renal): 85.8 µM
- GI50 (M14 melanoma): 20.2 µM
- TGI (M14 melanoma): 49.9 µM
- GI50 (SF-268 CNS): 36.9 µM
- TGI (SF-268 CNS): > 100 µM
- GI50 (NCI-H460 lung): 48.6 µM
- TGI (NCI-H460 lung): > 100 µM
- GI50 (UACC-62 melanoma): 25.8 µM
- TGI (UACC-62 melanoma): 75.1 µM
- GI50 (NCI-H522 lung): 66.5 µM
- TGI (NCI-H522 lung): > 100 µM
- GI50 (OVCAR-3 ovarian): 38.1 µM
- TGI (OVCAR-3 ovarian): > 100 µM
- GI50 (SW-620 colon): 58.9 µM
- TGI (SW-620 colon): > 100 µM
- GI50 (A498 renal): 58.7 µM
- TGI (A498 renal): > 100 µM
- GI50 (MDA-MB-435): 53.3 µM
- TGI (MDA-MB-435): > 100 µM
- GI50 (UACC-257 melanoma): 35.5 µM
- TGI (UACC-257 melanoma): > 100 µM
- GI50 (SK-MEL-5 melanoma): 39.8 µM
- TGI (SK-MEL-5 melanoma): > 100 µM
- GI50 (CCRF-CEM leukemia): 18.5 µM
- TGI (CCRF-CEM leukemia): 57.1 µM
- GI50 (MCF7 breast): 40.7 µM
- TGI (MCF7 breast): > 100 µM
- GI50 (OVCAR-8 ovarian): 43.8 µM
- TGI (OVCAR-8 ovarian): > 100 µM
- GI50 (EKVX NSCLC): 41.3 µM
- TGI (EKVX NSCLC): > 100 µM

Compound: Cc1c(C)c2c(c(C)c1OC(=O)CCC(=O)[O-])CCC(C)(CCCCCCCCCCC[P+](c1ccccc1)(c1ccccc1)c1ccccc1)O2 (stereo unspecified)
- GI50 (TK-10 renal): 0.244 µM
- TGI (TK-10 renal): 1.18 µM
- GI50 (SF-539 CNS): 0.185 µM
- TGI (SF-539 CNS): 0.721 µM
- GI50 (BT-549 breast): 0.14 µM
- TGI (BT-549 breast): 0.678 µM
- GI50 (HL-60(TB) leukemia): 0.14 µM
- TGI (HL-60(TB) leukemia): 0.566 µM
- GI50 (HS 578T breast): 0.18 µM
- TGI (HS 578T breast): 1.31 µM
- GI50 (SN12C renal): 0.165 µM
- TGI (SN12C renal): 0.615 µM
- GI50 (OVCAR-5 ovarian): 0.22 µM
- TGI (OVCAR-5 ovarian): 0.836 µM
- GI50 (A549 NSCLC): 0.234 µM
- TGI (A549 NSCLC): 4.58 µM
- GI50 (HCT-15 colon): 0.977 µM
- TGI (HCT-15 colon): 3.02 µM
- GI50 (UO-31 renal): 0.744 µM
- TGI (UO-31 renal): 1.42 µM
- GI50 (DU-145 prostate): 0.218 µM
- TGI (DU-145 prostate): 0.899 µM
- GI50 (HOP-92 NSCLC): 0.078 µM
- TGI (HOP-92 NSCLC): 0.276 µM
- GI50 (CAKI-1 renal): 0.451 µM
- TGI (CAKI-1 renal): 1.34 µM
- GI50 (SK-MEL-28 melanoma): 0.241 µM
- TGI (SK-MEL-28 melanoma): 0.829 µM
- GI50 (RPMI-8226 leukemia): 0.0151 µM
- TGI (RPMI-8226 leukemia): 0.148 µM
- GI50 (MOLT-4 leukemia): 0.456 µM
- TGI (MOLT-4 leukemia): 4.7 µM
- GI50 (KM12 colon): 0.177 µM
- TGI (KM12 colon): 0.705 µM
- GI50 (K-562 leukemia): 0.182 µM
- TGI (K-562 leukemia): 50 µM
- GI50 (LOX IMVI melanoma): 0.194 µM
- TGI (LOX IMVI melanoma): 0.747 µM
- GI50 (SK-OV-3 ovarian): 0.157 µM
- TGI (SK-OV-3 ovarian): 0.538 µM
- GI50 (NCI-H23 lung): 0.159 µM
- TGI (NCI-H23 lung): 0.671 µM
- GI50 (SR leukemia): 0.261 µM
- TGI (SR leukemia): 9.05 µM
- GI50 (HCC-2998 colon): 0.214 µM
- TGI (HCC-2998 colon): 0.809 µM
- GI50 (PC-3 prostate): 0.158 µM
- TGI (PC-3 prostate): 0.706 µM
- GI50 (NCI/ADR-RES ovarian): 5.62 µM
- TGI (NCI/ADR-RES ovarian): 22 µM
- GI50 (ACHN renal): 0.264 µM
- TGI (ACHN renal): 0.909 µM
- GI50 (UACC-62 melanoma): 0.177 µM
- TGI (UACC-62 melanoma): 0.727 µM
- GI50 (NCI-H522 lung): 0.153 µM
- TGI (NCI-H522 lung): 1.51 µM
- GI50 (OVCAR-3 ovarian): 0.145 µM
- TGI (OVCAR-3 ovarian): 0.542 µM
- GI50 (SW-620 colon): 0.174 µM
- TGI (SW-620 colon): 0.842 µM
- GI50 (SNB-75 CNS): 0.123 µM
- TGI (SNB-75 CNS): 0.49 µM
- GI50 (A498 renal): 0.0851 µM
- TGI (A498 renal): 0.41 µM
- GI50 (MDA-MB-435): 0.179 µM
- TGI (MDA-MB-435): 0.67 µM
- GI50 (UACC-257 melanoma): 0.151 µM
- TGI (UACC-257 melanoma): 0.512 µM
- GI50 (SK-MEL-5 melanoma): 0.0904 µM
- TGI (SK-MEL-5 melanoma): 0.182 µM
- GI50 (HT29 colon): 0.166 µM
- TGI (HT29 colon): 2.07 µM
- GI50 (CCRF-CEM leukemia): 0.226 µM
- TGI (CCRF-CEM leukemia): 1.31 µM
- GI50 (OVCAR-4 ovarian): 0.158 µM
- TGI (OVCAR-4 ovarian): 0.891 µM
- GI50 (MCF7 breast): 0.161 µM
- TGI (MCF7 breast): 0.815 µM
- GI50 (OVCAR-8 ovarian): 0.175 µM
- TGI (OVCAR-8 ovarian): 0.974 µM
- GI50 (EKVX NSCLC): 0.222 µM
- TGI (EKVX NSCLC): 1.45 µM
- GI50 (T-47D breast): 0.124 µM
- TGI (T-47D breast): 0.966 µM
